# Values joined by “and” are separate entries in the source; they are usually repeats but may differ in a detail not shown here. Equal values may be shown once.
# Columns and labels:
# Type in all cases: cell-based
# B16 melanoma [1] = experiment: Melanin production rate measurement (Experimental Example 1, 6 well plate, medium + cell melanin); details: for melanin production suppressive effect / whitening effect when combined as component (B): combined with (A) N-Ac-CP2Et; for melanin production suppressive effect / whitening effect when combined as component (B) / melanin production suppressing effect / whitening effect when combined as component (B): summary of Table 1, highest grade stated; for activity at 20000 µM: 20 mM; for activity at 22500 µM: 22.5 mM; for melanin production suppressing effect / whitening effect when combined as component (B): combined with (A) N-Ac-CP
# Method: B16 melanoma was cultured in DMEM (Dulbecco's Modified Eagle Medium) (high glucose, containing 10% serum). After confluence, the cells were seeded on a 6 well plate. The next day, each well medium was exchanged with DMEM (300 μM tyrosine added) added with each evaluation sample at a given evaluation concentration (Table 1), and the cells were cultured for 3 days. […] The medium was recovered, and centrifuged at 10000 rpm for 10 min. The absorbance of the supernatant at 450 nm was measured by spectrophotometer. The medium was recovered, and the cells were rinsed once with PBS (phosphate-buffered saline). A blending solution of 4% aqueous sodium hydroxide solution and dimethyl sulfoxide (9:1) was added to the well, and the mixture was stood at room temperature for 10 min. The cells were dissolved and recovered, and centrifuged at 3500 rpm for 10 min. The absorbance (450 nm) of the supernatant was measured by spectrophotometer. The total of the melanin amount in the medium and in the cell was calculated from the analytical curve drawn using synthetic melanin. By setting the calculated value 3 days after addition of each sample at a given concentration as a relative percentage to the calculated value of the control (no sample addition) defined as 100%, the melanin production rate of each sample to the melanin amount in the control as 100% was calculated. When a sample was dissolved dimethyl sulfoxide and then added, a sample containing 0.1% dimethyl sulfoxide was used as a control (no sample addition). The melanin production rate was standardized from the amount of cell protein obtained in Experimental Example 2.
# (§1) The spectrophotometer used in this melanin production suppression test was DU800, manufactured by BECKMAN COULTER.
# The melanin production rate of each sample was measured for a single use and combined use, and the effect of the combined use was evaluated by the following criteria using the theoretical value.
# The theoretical value was melanin production rate (%) by single use of component (A)×melanin production rate (%) by single use of component (B)/100.
# B16 melanoma [2] = experiment: Cell viability rate measurement (Experimental Example 2, cell protein amount); details: for cell viability rate (single): single use, 3 days; for safety when combined as component (B): summary of Table 1, highest grade stated
# Method: B16 melanoma was cultured in DMEM (Dulbecco's Modified Eagle Medium) (high glucose, containing 10% serum). After confluence, the cells were seeded on a 6 well plate. The next day, each well medium was exchanged with DMEM (300 μM tyrosine added) added with each evaluation sample at a given evaluation concentration (Table 1), and the cells were cultured for 3 days. The medium was recovered, and the cells were rinsed once with PBS (phosphate-buffered saline). A blending solution of 4% aqueous sodium hydroxide solution and dimethyl sulfoxide (9:1) was added to the well, and the mixture was stood at room temperature for 10 min. The cells were dissolved and recovered, and centrifuged at 3500 rpm for 10 min, and the supernatant was diluted 3-fold with milli-Q water. Solution A (DC Protein Assay; BIO RAD, 100 μl) was added to the diluted solution (20 μl) and the mixture was admixed in a vortex. Solution B (DC Protein Assay; BIO RAD, 800 μl) was added and mixed therewith, and the mixture was stood at room temperature for 15 min. After standing, the absorbance (750 nm) was measured by a spectrophotometer. In addition, the analytical curve of albumin was determined, the protein amount of the above-mentioned solution was calculated, and the relative rate was taken as a viability rate.
# as §1
# The cell viability rate of each sample was measured for a single use and combined use, and the effect of the combined use was evaluated by the following criteria using the degree of toxic mitigation.
# The degree of toxic mitigation was cell viability rate (%) by combined use of component (A) and component (B)−cell viability rate (%) by single use of component (B).
# B16 melanoma [3] = experiment: Melanin production rate measurement (Experimental Example 3, 96 well plate, 5-25 mM); details: for IC50: Mus musculus, B16, 72 h, 3 days, samples 5-25 mM, read-out: concentration suppressing melanin production by 50%
# Method: The cysteine derivatives of Synthetic Example 1 and Synthetic Example 3 were measured for a melanin production rate for comparison of a whitening effect. B16 melanoma was cultured in DMEM (Dulbecco's Modified Eagle Medium) (containing high glucose, serum 10%). After confluence, it was seeded in a 96 well plate. The next day, each well medium was exchanged with DMEM added with each evaluation sample adjusted to 5-25 mM, and the cells were cultured for 3 days. The absorbance at 450 nm was measured by a microplatereader. By setting the measurement value 3 days after addition of each sample at a given concentration as a relative percentage to the measurement value of the control (no sample addition) defined as 100%, the melanin production rate of each sample to the melanin amount in the control as 100% was calculated.
# The calculated concentrations of the cysteine derivatives of Synthetic Example 1 and Synthetic Example 3 necessary for suppressing the melanin production rate by 50% are shown in Table 2.
# The microplatereader used in this melanin production suppressing test was MULTISKAN FC manufactured by Thermo Fisher Scientific Inc.
# [4] = Mus musculus, B16, 72 h, single use, 3 days, control = 100%
smiles,measurement,setting,value
"COc1ccc(C(=O)O)c(O)c1 [4-MS, 4-methoxy salicylic acid]",activity at 5000 µM,"B16 melanoma [1]; Mus musculus, B16, 72 h, 5 mM (0.0084%), single use, 3 days, control = 100%",100%
same,melanin production suppressive effect / whitening effect when combined as component (B),B16 melanoma [1],extremely remarkably improved
same,cell viability rate (single),B16 melanoma [2]; 5 mM (0.0084%),87.0%
CCCCC/C=C\C/C=C\CCCCCCCC(=O)O [linoleic acid],activity at 75 µM,"B16 melanoma [1]; Mus musculus, B16, 72 h, 75 μM, single use, 3 days, control = 100%",71.3%
same,melanin production suppressive effect / whitening effect when combined as component (B),B16 melanoma [1],improved
same,cell viability rate (single),B16 melanoma [2]; 75 μM,105.2%
same,safety when combined as component (B),B16 melanoma [2]; combined with (A) N-Ac-CP2Et,remarkably improved
"CCOC(=O)C1(C)SCC(C(=O)O)N1C(C)=O (stereo not shown) [N—Ac-CP2Et, N-acetyl-2-methylthiazolidine-2,4-dicarboxylic acid 2-ethyl ester]",activity at 15000 µM,"B16 melanoma [1]; Mus musculus, B16, 72 h, 15 mM, single use, 3 days, control = 100%",92.2%
same,activity at 20000 µM,B16 melanoma [1]; [4],62%
same,activity at 22500 µM,B16 melanoma [1]; [4],48.6%
same,IC50,B16 melanoma [3],18.9 mM
same,cell viability rate (single),B16 melanoma [2]; 15 mM,105.7%
same,cell viability rate (single),B16 melanoma [2]; 20 mM,101.5%
same,cell viability rate (single),B16 melanoma [2]; 22.5 mM,98.6%
O=c1oc2c(O)c(O)cc3c(=O)oc4c(O)c(O)cc1c4c23 [ellagic acid],activity at 6 µM,"B16 melanoma [1]; Mus musculus, B16, 72 h, 6 μM, single use, 3 days, control = 100%",100%
same,melanin production suppressive effect / whitening effect when combined as component (B),B16 melanoma [1],improved
same,cell viability rate (single),B16 melanoma [2]; 6 μM,96.1%
same,safety when combined as component (B),B16 melanoma [2]; combined with (A) N-Ac-CP2Et,extremely remarkably improved
OC[C@H]1O[C@@H](Oc2ccc(O)cc2)[C@H](O)[C@@H](O)[C@@H]1O [arbutin],melanin production suppressive effect / whitening effect when combined as component (B),B16 melanoma [1],extremely remarkably improved
same,melanin production suppressing effect / whitening effect when combined as component (B),B16 melanoma [1],improved
same,cell viability rate (single),B16 melanoma [2]; 0.5 mM,85.5% and 96.5%
same,safety when combined as component (B),B16 melanoma [2]; combined with (A) N-Ac-CP2Et,improved
same,safety when combined as component (B),B16 melanoma [2]; combined with (A) N-Ac-CP,improved
O=c1cc(CO)occ1O [kojic acid],activity at 250 µM,"B16 melanoma [1]; Mus musculus, B16, 72 h, 0.25 mM, single use, 3 days, control = 100%",66%
same,melanin production suppressive effect / whitening effect when combined as component (B),B16 melanoma [1],extremely remarkably improved
same,cell viability rate (single),B16 melanoma [2]; 0.25 mM,99.1%
same,safety when combined as component (B),B16 melanoma [2]; combined with (A) N-Ac-CP2Et,extremely remarkably improved
"CCCCCCc1ccc(O)cc1O [rcinol, 4-hexylresorcinol]",activity at 12.5 µM,"B16 melanoma [1]; Mus musculus, B16, 72 h, 12.5 μM, single use, 3 days, control = 100%",66.2%
same,melanin production suppressive effect / whitening effect when combined as component (B),B16 melanoma [1],improved
same,cell viability rate (single),B16 melanoma [2]; 12.5 μM,94.3%
same,safety when combined as component (B),B16 melanoma [2]; combined with (A) N-Ac-CP2Et,remarkably improved
"CC(=O)N1C(C(=O)O)CSC1(C)C(=O)O (stereo not shown) [N—Ac-CP, N-acetyl-2-methylthiazolidine-2,4-dicarboxylic acid]",activity at 20000 µM,B16 melanoma [1]; [4],59.4%
same,activity at 22500 µM,B16 melanoma [1]; [4],45.1%
same,activity at 25000 µM,"B16 melanoma [1]; Mus musculus, B16, 72 h, 25 mM, single use, 3 days, control = 100%",35.3%
same,cell viability rate (single),B16 melanoma [2]; 20 mM,95.6%
same,cell viability rate (single),B16 melanoma [2]; 22.5 mM,100.6%
same,cell viability rate (single),B16 melanoma [2]; 25 mM,97.8%
"CCOC(=O)[C@]1(C)SC[C@@H](C(=O)O)N1C(C)=O [Synthetic Example 3, (2S,4R)-N-acetyl-2-methylthiazolidine-2,4-dicarboxylic acid 2-ethyl ester]",IC50,B16 melanoma [3],16.6 mM
same,melanin production suppressing effect compared with Synthetic Example 1,B16 melanoma [3]; from Table 2,stronger
"CCCCCCCCCCCCCCCCOC1=C(O)C(=O)O[C@@H]1[C@@H](O)CO [cetyl ascorbyl ether, 3-o-cetyl ascorbyl ether]",Melanin production rate (single),"B16 melanoma [1]; 30 μM, single use, 3 days, control = 100%",72.8% and 67.6%
same,melanin production suppressive effect / whitening effect when combined as component (B),B16 melanoma [1],remarkably improved
same,melanin production suppressing effect / whitening effect when combined as component (B),B16 melanoma [1],remarkably improved
same,cell viability rate (single),B16 melanoma [2]; 30 μM,75.8%
"NC[C@H]1CC[C@H](C(=O)O)CC1 [tranexamic acid, trans-4-(aminomethyl)-cyclohexanecarboxylic acid]",activity at 10000 µM,"B16 melanoma [1]; Mus musculus, B16, 72 h, 10 mM, single use, 3 days, control = 100%",100%
same,melanin production suppressive effect / whitening effect when combined as component (B),B16 melanoma [1],extremely remarkably improved
same,cell viability rate (single),B16 melanoma [2]; 10 mM,93.1%
same,safety when combined as component (B),B16 melanoma [2]; combined with (A) N-Ac-CP2Et,remarkably improved
"N[C@@H](CCC(=O)N[C@@H](CS)C(=O)NCC(=O)O)C(=O)O [GSH, glutathione (reduced type)]",activity at 500 µM,"B16 melanoma [1]; Mus musculus, B16, 72 h, 0.5 mM, single use, 3 days, control = 100%",100%
same,activity at 2000 µM,"B16 melanoma [1]; Mus musculus, B16, 72 h, 2 mM, single use, 3 days, control = 100%",100%
same,melanin production suppressive effect / whitening effect when combined as component (B),B16 melanoma [1],improved
same,melanin production suppressing effect / whitening effect when combined as component (B),B16 melanoma [1],extremely remarkably improved
same,cell viability rate (single),B16 melanoma [2]; 0.5 mM,94.4%
same,cell viability rate (single),B16 melanoma [2]; 2 mM,67.8%
same,safety when combined as component (B),B16 melanoma [2]; combined with (A) N-Ac-CP2Et,remarkably improved
same,safety when combined as component (B),B16 melanoma [2]; combined with (A) N-Ac-CP,remarkably improved
